Activity calls are given as the source filed them.
What was measured:
[1] = target: Intestinal-type alkaline phosphatase (Homo sapiens, UniProt P09923); test: inhibition of human intestinal alkaline phosphatase – biochemical, dose response (AID 488876); format: functional
[2] = target: Intestinal-type alkaline phosphatase (Mus musculus, UniProt P24822); test: PubChem AID 488785; format: functional
[3] = target: T1, Alkaline phosphatase, tissue-nonspecific isozyme (Homo sapiens, UniProt P05186); test: TNAP enzyme inhibition by screening hits, dose response, selectivity assay for mouse IAP inhibitor project, biochemical, human TNAP, uHTS hits (AID 488906); format: functional
T1 sequence (P05186 whole entry): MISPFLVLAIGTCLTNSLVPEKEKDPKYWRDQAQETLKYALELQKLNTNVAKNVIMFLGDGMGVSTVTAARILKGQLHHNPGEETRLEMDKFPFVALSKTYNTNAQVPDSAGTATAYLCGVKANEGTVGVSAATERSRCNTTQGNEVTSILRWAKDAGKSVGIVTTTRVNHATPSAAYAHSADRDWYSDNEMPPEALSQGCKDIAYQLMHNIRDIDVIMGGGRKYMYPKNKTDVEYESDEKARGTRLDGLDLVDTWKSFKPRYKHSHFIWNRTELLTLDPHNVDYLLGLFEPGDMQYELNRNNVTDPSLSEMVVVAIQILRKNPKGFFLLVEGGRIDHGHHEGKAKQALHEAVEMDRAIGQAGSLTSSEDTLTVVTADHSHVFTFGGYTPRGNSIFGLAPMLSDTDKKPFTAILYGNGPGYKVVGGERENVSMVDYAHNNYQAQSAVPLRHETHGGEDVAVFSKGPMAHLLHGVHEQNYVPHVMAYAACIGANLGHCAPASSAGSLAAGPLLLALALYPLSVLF

[4] = inhibitors of intracellular T. cruzi replication, confirmation, NIH3T3 host cells, beta-gal luminescence (AID 2044); format: functional, cell-based;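 also: intracellular parasites grown in NIH/3T3 mouse fibroblasts as host cells; luminescent beta-galactosidase reporter signal from transgenic T. cruzi replicating inside host cells; inhibitors lower the luminescence signal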
[5] = cytotoxicity toward NIH3T3 fibroblasts, dose response, counter-screen, cell-based, ATP luminescence, mouse fibroblasts (AID 2010); format: functional;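 also: cells exposed to compound for about 90 hours before reading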
HeLa = test: HeLa cell cytotoxicity, dose response, cytotoxicity control for MITF activator project, CellTiter-Glo luminescence, cherry-pick samples (AID 540259); format: functional, cell-based; conditions: Homo sapiens
[6] = target: Sphingosine 1-phosphate receptor 2 (Homo sapiens, UniProt O95136); test: Dose Response Cell Based Assay for Agonists of the S1P2 Receptor. [Related pubchem assays: 729, 736, 843 ]; format: functional
CAAX prenyl protease 2 [7] = target: CAAX prenyl protease 2 (Homo sapiens, UniProt Q9Y256); test: human Rce1 protease inhibitors, dose response, biochemical, yeast membranes, quenched-peptide fluorescence, cherry-pick (AID 588849)
CAAX prenyl protease 2 [8] = target: CAAX prenyl protease 2 (Saccharomyces cerevisiae S288c, UniProt Q03530); format: biochemical
Cytochrome P450 2C19 = Cytochrome P450 2C19 (Homo sapiens, UniProt P33261); test: Cytochrome panel assay with activity outcomes. Panel member name: p450-cyp2c19 Compounds with AC50 equal or less than 10 uM are considered active; format: functional
Cytochrome P450 2C19, sequence (P33261 whole entry): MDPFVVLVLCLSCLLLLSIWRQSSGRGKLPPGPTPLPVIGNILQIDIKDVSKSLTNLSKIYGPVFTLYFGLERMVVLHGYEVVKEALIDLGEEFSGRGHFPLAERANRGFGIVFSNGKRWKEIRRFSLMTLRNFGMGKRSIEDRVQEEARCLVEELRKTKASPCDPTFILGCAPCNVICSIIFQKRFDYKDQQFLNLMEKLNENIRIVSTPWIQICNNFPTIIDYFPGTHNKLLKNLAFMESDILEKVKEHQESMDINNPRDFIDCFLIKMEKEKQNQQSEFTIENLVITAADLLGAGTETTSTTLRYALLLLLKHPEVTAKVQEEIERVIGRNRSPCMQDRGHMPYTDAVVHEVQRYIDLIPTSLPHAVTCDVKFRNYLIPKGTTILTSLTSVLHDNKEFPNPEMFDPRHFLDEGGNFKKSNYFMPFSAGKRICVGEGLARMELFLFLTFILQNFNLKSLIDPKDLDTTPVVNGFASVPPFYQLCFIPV

Escherichia coli [9] = test: microbe, parasite or virus in culture
Cytochrome P450 3A4 [10] = target: T2, Cytochrome P450 3A4 (Homo sapiens, UniProt P08684);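 also: CYP3A4 tested as one member of a cytochrome P450 panel screen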
T2 sequence (P08684 whole entry): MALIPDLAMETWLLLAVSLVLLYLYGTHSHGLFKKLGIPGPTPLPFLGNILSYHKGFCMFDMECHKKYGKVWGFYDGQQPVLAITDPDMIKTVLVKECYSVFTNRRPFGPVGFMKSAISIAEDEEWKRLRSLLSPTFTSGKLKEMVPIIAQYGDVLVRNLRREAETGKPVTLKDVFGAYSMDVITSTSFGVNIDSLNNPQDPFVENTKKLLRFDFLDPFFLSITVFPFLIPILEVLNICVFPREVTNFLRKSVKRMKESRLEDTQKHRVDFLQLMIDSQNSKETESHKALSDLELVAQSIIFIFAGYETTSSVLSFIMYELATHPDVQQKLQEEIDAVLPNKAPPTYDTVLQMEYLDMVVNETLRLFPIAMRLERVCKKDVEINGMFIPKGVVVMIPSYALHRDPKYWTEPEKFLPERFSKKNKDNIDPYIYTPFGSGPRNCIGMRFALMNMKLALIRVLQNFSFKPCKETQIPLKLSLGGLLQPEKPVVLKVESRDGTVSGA

Cysteine protease ATG4B = Cysteine protease ATG4B (Homo sapiens, UniProt Q9Y4P1); format: functional;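 also: Fluorescence-based dose-response confirmation assay measuring inhibition of ATG4B activity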
Cysteine protease ATG4B, sequence (Q9Y4P1 whole entry): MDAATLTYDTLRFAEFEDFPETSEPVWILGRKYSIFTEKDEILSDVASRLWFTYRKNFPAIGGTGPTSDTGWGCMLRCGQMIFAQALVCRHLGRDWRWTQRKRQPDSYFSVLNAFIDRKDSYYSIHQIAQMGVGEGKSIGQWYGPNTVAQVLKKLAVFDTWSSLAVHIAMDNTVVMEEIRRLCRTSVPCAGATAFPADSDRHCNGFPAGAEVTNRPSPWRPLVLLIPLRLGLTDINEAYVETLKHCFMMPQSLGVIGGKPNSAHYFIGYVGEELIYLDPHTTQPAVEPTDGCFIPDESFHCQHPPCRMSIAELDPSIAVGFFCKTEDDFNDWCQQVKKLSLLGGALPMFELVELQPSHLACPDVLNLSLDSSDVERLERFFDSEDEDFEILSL

Phospholipase A2 = Phospholipase A2 (Homo sapiens, UniProt P04054); format: functional;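 also: confirmatory dose-response counterscreen on phospholipase A2, testing hits that came from an ultra-high-throughput screen for ATG4B inhibitors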
Phospholipase A2, sequence (P04054 whole entry): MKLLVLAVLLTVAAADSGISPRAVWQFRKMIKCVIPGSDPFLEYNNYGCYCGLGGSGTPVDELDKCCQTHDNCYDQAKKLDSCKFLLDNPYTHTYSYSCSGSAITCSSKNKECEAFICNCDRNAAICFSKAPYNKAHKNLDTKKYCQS

[11] = target: Lysine-specific demethylase 4A (Homo sapiens, UniProt O75164); test: JMJD2A histone demethylase inhibitors, dose response, selectivity assay for GASC-1 inhibitor project, biochemical, DELFIA europium, cherry-picked samples (AID 488840)
Lysine-specific demethylase 4A, sequence (O75164 whole entry): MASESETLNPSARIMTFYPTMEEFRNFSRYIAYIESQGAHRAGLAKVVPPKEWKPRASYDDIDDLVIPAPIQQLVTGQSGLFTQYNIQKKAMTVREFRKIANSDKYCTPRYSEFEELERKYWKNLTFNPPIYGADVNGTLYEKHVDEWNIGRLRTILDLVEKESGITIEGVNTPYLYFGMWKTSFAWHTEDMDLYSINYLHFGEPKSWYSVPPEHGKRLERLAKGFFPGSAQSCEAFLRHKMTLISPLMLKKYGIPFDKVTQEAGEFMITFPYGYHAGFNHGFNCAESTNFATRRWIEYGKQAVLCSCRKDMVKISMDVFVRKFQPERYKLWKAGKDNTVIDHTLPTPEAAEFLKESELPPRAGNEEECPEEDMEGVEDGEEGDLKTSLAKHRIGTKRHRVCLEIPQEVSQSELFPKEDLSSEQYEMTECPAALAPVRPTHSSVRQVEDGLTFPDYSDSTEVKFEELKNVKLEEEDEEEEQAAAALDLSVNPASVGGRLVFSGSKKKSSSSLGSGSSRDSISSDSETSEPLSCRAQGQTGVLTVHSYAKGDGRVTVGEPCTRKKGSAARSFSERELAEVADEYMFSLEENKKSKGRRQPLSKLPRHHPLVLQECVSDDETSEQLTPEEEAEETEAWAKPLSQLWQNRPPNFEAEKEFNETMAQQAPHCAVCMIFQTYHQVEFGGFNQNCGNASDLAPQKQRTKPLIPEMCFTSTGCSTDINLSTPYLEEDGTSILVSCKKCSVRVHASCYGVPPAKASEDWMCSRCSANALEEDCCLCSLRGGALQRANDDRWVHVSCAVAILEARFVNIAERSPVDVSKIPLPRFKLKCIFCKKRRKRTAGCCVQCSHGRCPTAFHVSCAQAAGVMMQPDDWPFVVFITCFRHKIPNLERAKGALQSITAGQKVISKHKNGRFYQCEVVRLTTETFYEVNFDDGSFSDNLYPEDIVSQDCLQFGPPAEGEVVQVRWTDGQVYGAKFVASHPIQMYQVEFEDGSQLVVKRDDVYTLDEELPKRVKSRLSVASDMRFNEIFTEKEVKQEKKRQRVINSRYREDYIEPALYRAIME

Cytochrome P450 3A4 [12] = target: T2, Cytochrome P450 3A4; remark: listed apart in the source
[13] = target: T3, Nuclear receptor subfamily 0 group B member 1 (Homo sapiens, UniProt P51843); test: Luminescence-based cell-based high throughput dose response assay for inhibitors of the orphan nuclear receptor subfamily 0, group B, member 1 (DAX1; NR0B1). [Related pubchem assays (depositor defined):AID504766, AID504790]; format: functional
T3 sequence (P51843 whole entry): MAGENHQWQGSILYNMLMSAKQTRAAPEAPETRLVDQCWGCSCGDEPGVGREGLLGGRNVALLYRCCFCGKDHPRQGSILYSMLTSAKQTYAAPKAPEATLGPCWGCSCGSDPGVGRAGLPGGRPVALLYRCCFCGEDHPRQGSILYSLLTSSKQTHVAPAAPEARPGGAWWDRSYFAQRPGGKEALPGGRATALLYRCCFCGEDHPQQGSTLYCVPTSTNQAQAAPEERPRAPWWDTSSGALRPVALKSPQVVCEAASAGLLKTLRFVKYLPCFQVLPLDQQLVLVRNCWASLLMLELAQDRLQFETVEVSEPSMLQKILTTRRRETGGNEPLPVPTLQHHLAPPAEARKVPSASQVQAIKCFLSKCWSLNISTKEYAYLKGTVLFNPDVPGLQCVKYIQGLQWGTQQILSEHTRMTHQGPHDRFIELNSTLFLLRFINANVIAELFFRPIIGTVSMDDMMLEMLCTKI

HEK293 [14] = test: cells; format: functional, cell-based; conditions: Homo sapiens
H4 = test: Luminescence Cell-Based Dose Response HTS to Identify Activators of 5'UTR Stem-Loop Driven Prion Protein mRNA Translation in H4 Neuroglioblastoma Cells. [Related pubchem assays: 1829 (Project Summary), 1814 (Primary HTS)]; format: functional; conditions: Homo sapiens
[15] = target: 5-hydroxytryptamine receptor 5A (Homo sapiens, UniProt P47898); test: Counterscreen for agonists of OPRM1-OPRD1 heterodimerization: luminescence-based cell-based high throughput dose response assay to identify agonists of 5-hydroxytryptamine (serotonin) 5A receptor (HTR5A). [Related pubchem assays (depositor defined):AID504326, AID504355, AID504692, AID504904, AID504905]; format: functional
5-hydroxytryptamine receptor 5A, sequence (P47898 whole entry): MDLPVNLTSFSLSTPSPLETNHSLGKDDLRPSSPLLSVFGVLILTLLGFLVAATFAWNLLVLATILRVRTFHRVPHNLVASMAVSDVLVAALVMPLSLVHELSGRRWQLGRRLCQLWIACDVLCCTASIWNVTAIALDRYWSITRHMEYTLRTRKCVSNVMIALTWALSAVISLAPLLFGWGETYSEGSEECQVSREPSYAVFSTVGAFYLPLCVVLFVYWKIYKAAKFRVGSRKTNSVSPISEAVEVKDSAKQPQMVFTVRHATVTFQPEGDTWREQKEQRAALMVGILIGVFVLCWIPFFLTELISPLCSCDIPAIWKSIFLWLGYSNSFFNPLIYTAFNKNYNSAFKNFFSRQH

[16] = target: Delta-type opioid receptor (Homo sapiens, UniProt P41143); test: Counterscreen for agonists of heterodimerization of the mu 1 (OPRM1) and delta 1 (OPRD1) opioid receptors: Luminescence-based cell-based high throughput dose response assay to identify agonists of OPRD1 homodimerization. [Related pubchem assays (depositor defined):AID504326, AID504355, AID504692, AID504904, AID504905]; format: functional
Delta-type opioid receptor, sequence (P41143 whole entry): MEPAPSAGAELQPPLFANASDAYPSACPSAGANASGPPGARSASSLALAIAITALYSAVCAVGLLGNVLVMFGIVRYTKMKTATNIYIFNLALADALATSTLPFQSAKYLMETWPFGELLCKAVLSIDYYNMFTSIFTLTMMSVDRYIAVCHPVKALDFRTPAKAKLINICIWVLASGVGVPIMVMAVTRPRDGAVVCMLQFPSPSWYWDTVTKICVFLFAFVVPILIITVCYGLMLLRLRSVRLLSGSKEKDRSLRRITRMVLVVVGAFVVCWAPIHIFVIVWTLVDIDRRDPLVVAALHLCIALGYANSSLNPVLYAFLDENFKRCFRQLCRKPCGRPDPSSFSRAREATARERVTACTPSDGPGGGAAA

Mu-type opioid receptor = Mu-type opioid receptor (Homo sapiens, UniProt P35372); test: Counterscreen for agonists of heterodimerization of the mu 1 (OPRM1) and delta 1 (OPRD1) opioid receptors: Luminescence-based cell-based high throughput dose response assay to identify agonists of OPRM1 homodimerization.; format: functional;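 also: U2OS cells expressing OPRM1 and beta-arrestin as split beta-galactosidase partners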
Mu-type opioid receptor, sequence (P35372 whole entry): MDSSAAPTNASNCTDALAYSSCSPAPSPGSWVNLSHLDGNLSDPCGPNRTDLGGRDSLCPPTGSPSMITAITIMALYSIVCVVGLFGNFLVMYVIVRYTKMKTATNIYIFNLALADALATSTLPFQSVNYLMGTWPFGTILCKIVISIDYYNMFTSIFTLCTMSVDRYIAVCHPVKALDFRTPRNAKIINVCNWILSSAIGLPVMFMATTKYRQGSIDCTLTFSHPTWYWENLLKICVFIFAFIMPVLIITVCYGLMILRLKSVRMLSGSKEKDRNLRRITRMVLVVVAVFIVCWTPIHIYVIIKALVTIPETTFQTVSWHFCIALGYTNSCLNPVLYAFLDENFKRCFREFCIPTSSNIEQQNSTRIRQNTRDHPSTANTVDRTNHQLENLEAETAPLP

[17] = target: G-protein coupled receptor 55 (Homo sapiens, UniProt Q9Y2T6); test: GPR55 antagonists blocking LPI-driven arrestin recruitment, primary screen, imaging, U2OS, beta-arrestin-GFP, LPI agonist (AID 2013); format: functional;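 also: antagonist potency measured as reduced agonist-driven arrestin aggregation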
Vero = test: cells; format: functional; conditions: Chlorocebus sabaeus
[18] = target: Dual specificity tyrosine-phosphorylation-regulated kinase 1A (Rattus norvegicus, UniProt Q63470); format: biochemical, Homo sapiens
Protein skinhead-1 = target: T4, Protein skinhead-1 (Caenorhabditis elegans, UniProt P34707); format: functional
T4 sequence (P34707 whole entry): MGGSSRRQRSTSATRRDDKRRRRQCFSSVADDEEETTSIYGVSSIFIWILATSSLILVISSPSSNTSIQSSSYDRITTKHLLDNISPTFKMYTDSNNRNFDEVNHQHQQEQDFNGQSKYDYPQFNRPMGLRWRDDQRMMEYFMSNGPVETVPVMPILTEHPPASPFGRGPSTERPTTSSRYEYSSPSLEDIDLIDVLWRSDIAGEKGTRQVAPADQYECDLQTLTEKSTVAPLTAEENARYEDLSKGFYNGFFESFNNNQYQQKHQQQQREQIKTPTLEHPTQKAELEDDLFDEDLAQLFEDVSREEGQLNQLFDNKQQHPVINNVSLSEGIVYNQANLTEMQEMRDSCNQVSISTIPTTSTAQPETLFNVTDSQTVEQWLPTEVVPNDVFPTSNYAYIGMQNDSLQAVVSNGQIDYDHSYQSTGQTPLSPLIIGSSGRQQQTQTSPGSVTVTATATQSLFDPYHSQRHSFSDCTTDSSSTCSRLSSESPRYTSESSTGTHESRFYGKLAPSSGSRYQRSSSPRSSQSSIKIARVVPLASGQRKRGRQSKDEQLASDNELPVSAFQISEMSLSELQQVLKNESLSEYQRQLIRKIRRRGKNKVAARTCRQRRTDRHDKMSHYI

[19] = tested on: Streptococcus sp. 'group A'; test: growth inhibition of control SK(-) GAS strain, dose response, counter-screen for streptokinase expression inhibitor project, luminescence, kanamycin, BacTiterGlo, confirmation (AID 1900); format: functional, organism-based
Streptococcus = test: Group A Streptococcus viability loss, dose response, counter-screen for streptokinase expression inhibitor project, luminescence, BacTiterGlo (AID 1915); format: functional, organism-based;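 also: potency for reduction of bacterial viability or growth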
Escherichia coli [20] = test: microbe, parasite or virus in culture; remark: listed apart in the source
Genome polyprotein = Genome polyprotein (dengue virus type 2, UniProt P29990); test: Dengue-2 NS5 methyltransferase inhibitors, primary screen, biochemical, confirmation dose response (AID 588689); format: functional
[21] = target: Induced myeloid leukemia cell differentiation protein Mcl-1 (Homo sapiens, UniProt Q07820); format: functional
HEK293 [22] = test: cells; conditions: Homo sapiens
HEK293 [23] = test: cells; conditions: Homo sapiens; remark: listed apart in the source

Intestinal-type alkaline phosphatase (Homo sapiens, UniProt P09923), sequence (P09923 whole entry): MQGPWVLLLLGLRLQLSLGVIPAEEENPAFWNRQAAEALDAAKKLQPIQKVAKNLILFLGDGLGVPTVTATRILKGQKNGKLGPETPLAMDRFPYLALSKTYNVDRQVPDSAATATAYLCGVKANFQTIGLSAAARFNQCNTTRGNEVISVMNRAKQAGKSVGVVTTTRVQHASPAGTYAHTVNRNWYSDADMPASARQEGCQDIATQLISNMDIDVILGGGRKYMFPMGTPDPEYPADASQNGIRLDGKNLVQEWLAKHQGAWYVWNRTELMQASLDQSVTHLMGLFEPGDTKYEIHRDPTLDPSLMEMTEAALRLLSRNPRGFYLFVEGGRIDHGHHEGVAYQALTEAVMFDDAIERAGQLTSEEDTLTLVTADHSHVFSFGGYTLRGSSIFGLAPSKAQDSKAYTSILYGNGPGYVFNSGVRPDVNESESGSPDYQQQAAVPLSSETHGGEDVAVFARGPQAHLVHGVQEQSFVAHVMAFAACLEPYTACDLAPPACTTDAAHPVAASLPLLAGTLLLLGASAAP
Intestinal-type alkaline phosphatase (Mus musculus, UniProt P24822), sequence (P24822 whole entry): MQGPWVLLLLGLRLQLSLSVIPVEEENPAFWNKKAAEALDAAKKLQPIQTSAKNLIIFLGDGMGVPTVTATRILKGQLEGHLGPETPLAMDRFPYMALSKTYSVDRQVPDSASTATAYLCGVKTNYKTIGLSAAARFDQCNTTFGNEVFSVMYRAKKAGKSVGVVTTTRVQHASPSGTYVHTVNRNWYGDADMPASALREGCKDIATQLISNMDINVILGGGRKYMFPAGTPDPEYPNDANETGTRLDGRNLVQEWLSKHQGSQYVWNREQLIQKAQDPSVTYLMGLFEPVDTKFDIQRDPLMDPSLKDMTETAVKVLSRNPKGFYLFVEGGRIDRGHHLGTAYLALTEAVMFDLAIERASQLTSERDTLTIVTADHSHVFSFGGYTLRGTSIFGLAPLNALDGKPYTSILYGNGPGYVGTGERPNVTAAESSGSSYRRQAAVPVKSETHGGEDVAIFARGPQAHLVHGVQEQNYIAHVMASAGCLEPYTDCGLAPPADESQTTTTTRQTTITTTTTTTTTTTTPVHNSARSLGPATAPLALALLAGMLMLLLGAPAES

For `CCCn1ncc(CN2CCC(C(=O)Nc3cccc(-c4cccc(F)c4)c3)CC2)c1C`, the IC50 [1] was > 100 µM (inactive), the IC50 [2] was 0.902 µM (active) and the IC50 [3] was 11.8 µM (active). For the same compound, the EC50 [4] was 2.33 µM (active) and the EC50 [5] was 3.89 µM (active).

In the case of `O=c1c(-c2nc3ccccc3s2)cccn1Cc1ccccc1`, the AC50 (HeLa) is reported as 56.9 µM (active) and the EC50 [6] is reported as 7.37 µM (active).

In the case of `C[N+](C)(C)C(Cc1ccccc1)C(=O)[O-]` (stereo not given), the IC50 [1] is reported as > 100 µM (inactive), the IC50 [2] is reported as 4.35 µM (active) and the IC50 [3] is reported as 60.4 µM (active).

With `COc1ccc2cc(C(=O)C3CCCN(C(=O)c4cc(=O)n(C)c(=O)n4C)C3)ccc2c1` (stereo not given) the AC50 (CAAX prenyl protease 2 [7]) was 14.2 µM (active) and the AC50 (CAAX prenyl protease 2 [8]) was 10.4 µM (active).

In the case of `Fc1cccc(NC(S)=NCCCN2CCOCC2)c1`, the AC50 (Cytochrome P450 2C19; read-out: AC50) is reported as 17.8 µM (inconclusive), the AC50 (Escherichia coli [9]) is reported as 17.3 µM (active) and the AC50 (Cytochrome P450 3A4 [10]) is reported as 17.8 µM (inconclusive).

For `Cc1cc(OC(=O)c2cccs2)ccc1C(C)C`, the IC50 (Cysteine protease ATG4B) was 5.44 µM (active) and the IC50 (Phospholipase A2) was 3.74 µM (active).

With `O=C(O)c1cc(O)c2c(c1)[C@@H]([C@H]1c3cc(C(=O)O)cc(O)c3C(=O)c3c(O[C@@H]4O[C@H](CO)[C@@H](O)[C@H](O)[C@H]4O)cccc31)c1cccc(O[C@@H]3O[C@H](CO)[C@@H](O)[C@H](O)[C@H]3O)c1C2=O` [SENNOSIDE B] the AC50 [11] was 3.69 µM (active).

For `Cc1ccc(C(=O)C2CCNCC2)cc1.Cl`, the AC50 (Cytochrome P450 2C19) was “inconclusive” and the AC50 (Cytochrome P450 3A4 [12]) was “inconclusive”.

In the case of `Cc1ccccc1C(=O)N1CCN(c2ccc([N+](=O)[O-])c(N3CCOCC3)c2)CC1`, the AC50 (Cytochrome P450 3A4 [12]) is reported as “inconclusive”.

In the case of `CCn1c(C)cc(C(=O)COC(=O)c2cccnc2SC)c1C`, the IC50 [13] is reported as > 67.5 µM (inactive) and the IC50 (HEK293 [14]) is reported as > 67.5 µM (inactive).

In the case of `COc1cc(SC)ccc1C(=O)Nc1ccc2c(c1)OCO2`, the IC50 [13] is reported as > 67.6 µM (inactive) and the IC50 (HEK293 [14]) is reported as > 67.6 µM (inactive).

For `O=C1CCCc2nc3c(cc21)C(O)Oc1c-3ccc2ccccc12` (stereo not given), the AC50 (HeLa) was 51 µM (active) and the EC50 (H4) was > 120 µM (not active).

With `CCC(=O)OC(Cc1ccccc1)(c1ccccc1)[C@H](C)CN(C)C` (stereo not given in full) the EC50 [15] was > 92.5 µM (inactive), the EC50 [16] was 86.4 µM (inactive) and the EC50 (Mu-type opioid receptor) was > 92.5 µM (inactive).

With `CCOC(=O)[C@H]1[C@H]2COc3ccc(OC)cc3[C@H]2N2C(=O)CN(Cc3ccccc3)C(=O)[C@@]12C` the AC50 (Escherichia coli [9]) was 54.9 µM (active).

For `Cc1cc(/C=C2\SC(Nc3ccccc3)=NC2=O)c(C)n1-c1ccc(S(N)(=O)=O)cc1`, the IC50 [17] was 1.66 µM (active), the EC50 [15] was > 92.5 µM (inactive) and the CC50 (Vero) was 7.44 µM (active). For the same compound, the EC50 [16] was 3.03 µM (active) and the EC50 (Mu-type opioid receptor) was > 92.5 µM (inactive).

With `CC(=O)Nc1nc2ccc(Br)cc2s1` the AC50 [18] was 3.33 µM (active) and the IC50 (Protein skinhead-1) was > 100 µM (inactive).

With `COc1c(N2CCN(C(S)=Nc3ccccc3F)C(C)C2)c(F)cc2c(=O)c(C(=O)O)cn(C3CC3)c12` (stereo not given) the EC50 [19] was 2.24 µM (active), the EC50 (Streptococcus) was 3.27 µM (active) and the AC50 (Escherichia coli [20]) was 0.518 µM (active).

With `NS(=O)(=O)c1ccc(N=Nc2c(O)c(C(=O)O)cc3ccccc23)cc1` the IC50 (Genome polyprotein) was > 100 µM (active) and the AC50 [18] was 3.59 µM (active).

For `Cc1ccc(/N=C2N=C(O)/C(=C/C=C/c3ccco3)S\2)cc1C`, the IC50 [21] was 13.4 µM (active), the IC50 (Cysteine protease ATG4B) was 6.65 µM (active) and the IC50 (Phospholipase A2) was 5.94 µM (active).

In the case of `Cc1cccc(N(CC(=O)NC2CCCC2)C(=O)CCCC(=O)Nc2ccccn2)c1`, the AC50 (Escherichia coli [20]) is reported as 25 µM (active).

With `CCn1nnc(NC(=O)c2cc3ccccc3o2)n1` the AC50 [11] was 48.3 µM (active).

For `CC(C)(C)OC(=O)CC(S(=O)(=O)c1ccccc1)S(=O)(=O)c1ccccc1`, the EC50 (HEK293 [22]) was > 59.6 µM (inactive) and the EC50 (HEK293 [23]) was > 59.6 µM (inactive).
